Results reported in ChEMBL document CHEMBL1147953, “9-Nitroanthracene derivative as a precursor of anthraquinone for photodynamic therapy” (Bioorg Med Chem, 2007).
Activity calls are given as the source filed them. The rule behind the calls is not given here.

Legend:
Escherichia coli [1] = assay: Induction of strand cleavage in pBR322 DNA after irradiation with 5 J/cm^2 assessed as conversion of supercoiled DNA to […] circular form at 200 uM
Escherichia coli [2] = assay: Induction of strand cleavage in pBR322 DNA in absence of irradiation assessed as conversion of supercoiled DNA to […] circular form at 200 uM

SMILES	Activity (Escherichia coli [1])	Activity (Escherichia coli [2])
CN(C)CCCC(=O)Nc1ccc2cc3ccccc3cc2c1[N+](=O)[O-]	Active	inactive
CN(C)CCCC(=O)Nc1ccc2cc3ccccc3c([N+](=O)[O-])c2c1	Active	inactive
